Results from the supplement of paper PMC11451515.

System: NOMO1
Test: cell viability relative to DMSO control; higher = less cytotoxic
Conditions: 48 h
Summary of the method: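 Three leukemia lines were tested: NOMO1 and SEM at 500 cells/well and P12-Ichikawa at 1000 cells/well. Each was adapted for at least four passages in each medium and seeded in 5 μl in 1536-well plates, and library compounds in DMSO were pin-dosed from 47 μM to 0.79 nM in 11 threefold steps. After 48 h at 37°C, CellTiter-Glo One luminescence was read. Viability is a percentage relative to DMSO wells on each plate, with cell-free wells as background.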

[1] = HPLM + 10% dialyzed FBS, 0.000781 µM
[2] = HPLM + 10% dialyzed FBS, 0.00234 µM
[3] = HPLM + 10% dialyzed FBS, 0.00702 µM
[4] = HPLM + 10% dialyzed FBS, 0.0211 µM
[5] = HPLM + 10% dialyzed FBS, 0.0632 µM
[6] = HPLM + 10% dialyzed FBS, 0.19 µM
[7] = HPLM + 10% dialyzed FBS, 0.569 µM
[8] = HPLM + 10% dialyzed FBS, 1.71 µM
[9] = HPLM + 10% dialyzed FBS, 5.12 µM
[10] = HPLM + 10% dialyzed FBS, 15.4 µM
[11] = HPLM + 10% dialyzed FBS, 46.1 µM
[12] = RPMI 5 mM glucose + 10% FBS, 0.000781 µM
[13] = RPMI 5 mM glucose + 10% FBS, 0.00234 µM
[14] = RPMI 5 mM glucose + 10% FBS, 0.00702 µM
[15] = RPMI 5 mM glucose + 10% FBS, 0.0211 µM
[16] = RPMI 5 mM glucose + 10% FBS, 0.0632 µM
[17] = RPMI 5 mM glucose + 10% FBS, 0.19 µM
[18] = RPMI 5 mM glucose + 10% FBS, 0.569 µM
[19] = RPMI 5 mM glucose + 10% FBS, 1.71 µM
[20] = RPMI 5 mM glucose + 10% FBS, 5.12 µM
[21] = RPMI 5 mM glucose + 10% FBS, 15.4 µM
[22] = RPMI 5 mM glucose + 10% FBS, 46.1 µM
[23] = RPMI 5 mM glucose + 10% dialyzed FBS, 0.000781 µM
[24] = RPMI 5 mM glucose + 10% dialyzed FBS, 0.00234 µM
[25] = RPMI 5 mM glucose + 10% dialyzed FBS, 0.00702 µM
[26] = RPMI 5 mM glucose + 10% dialyzed FBS, 0.0211 µM
[27] = RPMI 5 mM glucose + 10% dialyzed FBS, 0.0632 µM
[28] = RPMI 5 mM glucose + 10% dialyzed FBS, 0.19 µM
[29] = RPMI 5 mM glucose + 10% dialyzed FBS, 0.569 µM
[30] = RPMI 5 mM glucose + 10% dialyzed FBS, 1.71 µM
[31] = RPMI 5 mM glucose + 10% dialyzed FBS, 5.12 µM
[32] = RPMI 5 mM glucose + 10% dialyzed FBS, 15.4 µM
[33] = RPMI 5 mM glucose + 10% dialyzed FBS, 46.1 µM

SMILES | cell viability [1] | cell viability [2] | cell viability [3] | cell viability [4] | cell viability [5] | cell viability [6] | cell viability [7] | cell viability [8] | cell viability [9] | cell viability [10] | cell viability [11] | cell viability [12] | cell viability [13] | cell viability [14] | cell viability [15] | cell viability [16] | cell viability [17] | cell viability [18] | cell viability [19] | cell viability [20] | cell viability [21] | cell viability [22] | cell viability [23] | cell viability [24] | cell viability [25] | cell viability [26] | cell viability [27] | cell viability [28] | cell viability [29] | cell viability [30] | cell viability [31] | cell viability [32] | cell viability [33]
OC(=O)C1=CC=C(NC2=NC3=C(C\N=C(/C4=CC(=CC=C34)Cl)C5=C(F)C=CC=C5F)C=N2)C=C1 | 87.2% | 96.6% | 104% | 122% | 97.9% | 103% | 87.6% | 45.2% | 44% | 59.1% | 72% | 81.9% | 96.8% | 80% | 91.3% | 90.4% | 79.9% | 82.3% | 32.8% | 37.8% | 56.4% | 56.4% | 93.2% | 95.7% | 89.2% | 94.1% | 89.8% | 97.8% | 77.3% | 35% | 38.8% | 55.9% | 61.4%
O=C(NCC[S+](=O)([O-])c1ccc(C(F)(F)F)cn1)c1ccc(Cl)cc1 | 127% | 117% | 119% | 117% | 119% | 120% | 132% | 117% | 105% | 122% | 106% | 122% | 144% | 116% | 134% | 135% | 127% | 123% | 118% | 130% | 128% | 110% | – | – | – | – | – | – | – | – | – | – | –
Cc1ccccc1C(C(=O)NC1CCCCC1)N(C(=O)Cn1ccnc1C)c1cccc(F)c1 (stereo unspecified) | 96.4% | 93.1% | 122% | 119% | 123% | 111% | 108% | 90% | 100% | 99.2% | 89.4% | 88.6% | 93.9% | 102% | 91.9% | 93.9% | 109% | 106% | 91.7% | 90.7% | 86% | 97.3% | 104% | 85.9% | 104% | 106% | 99.1% | 116% | 100% | 91% | 91.4% | 93.3% | 80.7%
C/C=C1\NC(=O)[C@H]2CSSCC/C=C\[C@H](CC(=O)N[C@H](C(C)C)C(=O)N2)OC(=O)[C@H](C(C)C)NC1=O | 102% | 119% | 119% | 105% | 17.7% | 4.68% | 4.81% | 4.43% | 5.27% | 4.81% | 4.24% | 99.6% | 97.5% | 104% | 94.9% | 18.1% | 4.23% | 3.46% | 3.14% | 2.93% | 2.29% | 2.53% | 93.7% | 90.3% | 103% | 108% | 30.1% | 4.52% | 4.41% | 3.52% | 3.86% | 1.77% | 3.47%
